Usually IC50 stands for the concentration at which inhibition is half-maximal.

The target of this assay is HCV NS3 protease (UniProt P26663). The format is biochemical, HCV genotype 1b. More on the design: rows headed: IC50 (μM); IC50 (μM). The method, then:
Recombinant HCV NS3 Protease/NS4A Cofactor Peptide Radiometric Assay
The enzyme was cloned, expressed and prepared according to the protocol described in Example 36. The enzyme was stored at −80° C., thawed on ice and diluted just prior to use in the assay buffer containing the NS4A cofactor peptide.
The substrate used for the NS3 protease/NS4A cofactor peptide radiometric assay, DDIVPC-SMSYTW, is cleaved between the cysteine and the serine residues by the enzyme. The sequence DDIVPC-SMSYTW corresponds to the NS5A/NS5B natural cleavage site in which the cysteine residue in P2 has been substituted for a proline. […] (molar ratio enzyme:cofactor 1:100) in the absence or presence of inhibitors. The separation of substrate from products is performed by adding avidin-coated agarose beads to the assay mixture followed by filtration. The amount of SMS[^125I-Y]TW product found in the filtrate allows for the calculation of the percentage of substrate conversion and of the percentage of inhibition.
The enzymatic reaction was initiated by the addition of the enzyme/NS4A peptide solution and the assay mixture was incubated for 40 min at 23° C. under gentle agitation. Ten (10) μL of 0.5N NaOH were added and 10 μL 1 M MES, pH 5.8 were added to quench the enzymatic reaction.
A non-linear curve fit with the Hill model was applied to the inhibition-concentration data, and the 50% effective concentration (IC50) was calculated by the use of SAS software (Statistical Software System; SAS Institute, Inc. Cary, N.C.). […]
The NS2-NS5B-3′ non coding region was cloned by RT-PCR into the pCR®3 vector (Invitrogen) using RNA extracted from the serum of an HCV genotype 1b infected individual (provided by Dr. Bernard Willems, Hôpital St-Luc, Montréal, Québec, Canada). The NS3-NS4A DNA region was then subcloned by PCR into the pFastBac™ HTa baculovirus expression vector (Gibco/BRL). The vector sequence includes a region encoding a 28-residue N-terminal sequence which contains a hexahistidine tag. The Bac-to-Bac™ baculovirus expression system (Gibco/BRL) was used to produce the recombinant baculovirus. The full length mature NS3 and NS4A heterodimer protein (His-NS3-NS4AFL) was expressed by infecting 10^6 Sf21 cells/mL with the recombinant baculovirus at a multiplicity of infection of 0.1-0.2 at 27° C. The infected culture was harvested 48 to 64 h later by centrifugation at 4° C. The cell pellet was homogenized in 50 mM NaPO4, pH 7.5, 40% glycerol (w/v), 2 mM β-mercaptoethanol, in presence of a cocktail of protease inhibitors. His-NS3-NS4AFL was then extracted from the cell lysate with 1.5% NP-40, 0.5% Triton X-100, 0.5M NaCl, and a DNase treatment. After ultracentrifugation, the soluble extract was diluted 4-fold and bound on a Pharmacia Hi-Trap Ni-chelating column. […] The His-NS3-NS4AFL was stored at −80° C. in 50 mM sodium phosphate, pH 7.5, 10% (w/v) glycerol, 0.5 M NaCl, 0.25 M imidazole, 0.1% NP-40. It was thawed on ice and diluted just prior to use. The protease activity of His-NS3-NS4AFL was assayed in 50 mM Tris-HCl, pH 8.0, 0.25 M sodium citrate, 0.01% (w/v) n-dodecyl-β-D-maltoside, 1 mM TCEP. Five (5) μM of the internally quenched substrate anthranilyl-DDIVPAbu[C(O)—O]-AMY(3-NO2)TW-OH in presence of various concentrations of inhibitor were incubated with 1.5 nM of His-NS3-NS4AFL for 45 min at 23° C. […] The reaction was terminated with the addition of 1M MES, pH 5.8. Fluorescence of the N-terminal product was monitored on a Perkin-Elmer LS-50B fluorometer equipped with a 96-well plate reader (excitation wavelength: 325 nm; emission wavelength: 423 nm).
The following tables list compounds representative of the invention.

Molecules are shown by their SMILES. Where two headings read alike, the source gives them in different places.

Chain of HCV NS3 protease (P26663 1027-1206, other chains not shown): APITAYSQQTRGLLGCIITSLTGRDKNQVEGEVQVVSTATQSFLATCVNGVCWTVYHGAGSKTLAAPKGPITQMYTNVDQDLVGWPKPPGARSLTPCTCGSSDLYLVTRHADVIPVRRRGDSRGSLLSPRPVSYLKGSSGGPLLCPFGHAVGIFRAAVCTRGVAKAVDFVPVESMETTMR

On to `C=CC1CC1(NC(=O)C1CC(Oc2cc(-c3csc(NC(C)(C)C)n3)nc3cc(OC)ccc23)CN1C(=O)C(NC(=O)OC(C)(C)C)C(C)(C)C)C(=O)O` (stereo not shown) [compound 733], for which, where the note is “Table 7”, half-maximal inhibition (IC50) was put at 28 nM.

Where the note is “Table 7”, `C=CC1C[C@]1(NC(=O)[C@@H]1C[C@@H](Oc2cc(C(C)C)nc3cc(OC)ccc23)CN1C(=O)[C@@H](NC(=O)OC(C)(C)C)C(C)(C)C)C(=O)O` (stereo partly shown) [compound 726] gave an IC50 of 250 nM.

Take `C=CC1CC1(NC(=O)C1CC(Oc2cc(-c3ccccc3)nc3cc(OC)ccc23)CN1C(=O)C(Nc1ccc(Cl)cc1)C(C)C)C(=O)O` (stereo not shown) [compound 837]: for the setting “Table 8”, it took 98 nM to reach half-maximal inhibition (IC50).

Take `C=CC1CC1(NC(=O)C1CC(Oc2cc(-c3nccs3)nc3cc(OC)ccc23)CN1C(=O)C(NC(=O)OC(C)(C)C)C(C)(C)C)C(=O)O` (stereo not shown) [compound 707]: the IC50 (Table 7) was 23 nM.

Turning to `C=CC1CC1(NC(=O)C1CC(Oc2cc(-c3ccccc3)nc3cc(OC)ccc23)CN1C(=O)C(NC(=O)OC1CCCCC1)C(C)(C)C)C(=O)O` (stereo not shown) [compound 868], under “Table 8”, the IC50 was 30 nM.

With `C=CC1CC1(NC(=O)C1CC(Oc2ccnc3ccccc23)CN1C(=O)C(NC(=O)OC(C)(C)C)C(C)OCc1ccccc1)C(=O)O` (stereo not shown) [compound 506], half-maximal inhibition (Table 5) (IC50) required 1300 nM.

The compound `C=CC1CC1(NC(=O)C1CC(Oc2cc(-c3ccncn3)nc3cc(OC)ccc23)CN1C(=O)C(NC(=O)OC(C)(C)C)C(C)(C)C)C(=O)O` (stereo not shown) [compound 725] registered an IC50 (Table 7) of 46 nM.

Where the note is “Table 6”, `C=CC1CC1(NC(=O)C1CC(Oc2cc(-c3csc(NC(C)=O)n3)nc3cc(N(CC)CC)ccc23)CN1C(=O)C(NC(=O)OC(C)(C)C)C(C)(C)C)C(=O)O` (stereo not shown) [compound 630] returned a half-maximal inhibitory concentration (IC50) of 43 nM.

On to `C=CC1CC1(NC(=O)C1CC(Oc2cc(-c3ccccc3)nc3cc(OC)ccc23)CN1C(=O)C(NC(=O)NC(C)(C)CC)C(C)(C)C)C(=O)O` (stereo not shown) [compound 870], for which, where the note is “Table 8”, the IC50 came to 9 nM.

In turn, `C=CC1CC1(NC(=O)C1CC(Oc2cc(-c3ccccc3)nc3cc(OC)ccc23)CN1C(=O)C(NC(=O)NC(C)(C)C(N)=O)C(C)(C)C)C(=O)O` (stereo not shown) [compound 833] returned an IC50 (Table 8) of 15 nM.

`C=CC1CC1(NC(=O)C1CC(Oc2cc(-c3ccccc3)nc3cc(OC)ccc23)CN1C(=O)C(NC(=O)NC(C)C(C)(C)C)C(C)(C)C)C(=O)O` (stereo not shown) [compound 873] had an IC50 (Table 8) of 19 nM.

`C=CC1CC1(NC(=O)C1CC(Oc2ccnc3ccccc23)CN1C(=O)C(NC(=O)OC(C)(C)C)C(C)(C)SCNC(C)=O)C(=O)O` (stereo not shown) [compound 507] gave an IC50 (Table 5) of 980 nM.

The compound `C=CC1CC1(NC(=O)C1CC(Oc2cc(-c3ccccc3)nc3cc(OC)ccc23)CN1C(=O)C(Nc1ccc(C#N)cc1)C(C)C)C(=O)O` (stereo not shown) [compound 839] had an IC50 (Table 8) of 100 nM.

Turning to `C=CC1CC1(NC(=O)C1CC(Oc2cc(-c3ccccc3)nc3cc(OC)ccc23)CN1C(=O)C(NC(=O)Nc1c(C)cccc1C)C(C)(C)C)C(=O)O` (stereo not shown) [compound 829], the IC50 (Table 8) is 57 nM.

Regarding `CC[C@H]1C[C@]1(NC(=O)[C@@H]1C[C@@H](OCc2cccc3ccccc23)CN1C(=O)[C@@H](NC(=O)OCC(C)C)C(C)C)C(=O)O` [compound 302], under “Table 3”, half-maximal inhibition (IC50) required 12500 nM.

With `C=CC1CC1(NC(=O)C1CC(Oc2cc(OCCC)nc3cc(OC)ccc23)CN1C(=O)C(NC(=O)OC(C)(C)C)C(C)(C)C)C(=O)O` (stereo not shown) [compound 731], inhibition (Table 7) was half-maximal at 31 nM (IC50).

`C=CC1CC1(NC(=O)C1CC(Oc2cc(N3CCC(OC)CC3)nc3cc(OC)ccc23)CN1C(=O)C(NC(=O)OC(C)(C)C)C(C)(C)C)C(=O)O` (stereo not shown) [compound 721] yielded an IC50 (Table 7) of 45 nM.

`C=CC1CC1(NC(=O)C1CC(Oc2cc(-c3ccccc3)nc3cc(OC)ccc23)CN1C(=O)C(Nc1ccc(CC#N)cc1)C(C)C)C(=O)O` (stereo not shown) [compound 856]: the IC50 (Table 8) came out at 110 nM.

On to `C=CC1CC1(NC(=O)C1CC(Oc2cc(-c3ccccc3)nc3c(OC)c(OC)ccc23)CN1C(=O)C(NC(=O)OC(C)(C)C)C(C)(C)C)C(=O)O` (stereo not shown) [compound 602], for which half-maximal inhibition (Table 6) (IC50) was put at 41 nM.

Under “Table 7”, `C=CC1CC1(NC(=O)C1CC(Oc2cc(-c3csc(N)n3)nc3cc(OC)ccc23)CN1C(=O)C(NC(=O)OC(C)(C)C)C(C)(C)C)C(=O)O` (stereo not shown) [compound 709] yielded a 50% inhibitory concentration (IC50) of 21 nM.

As to `C=CC1C[C@]1(NC(=O)[C@@H]1C[C@@H](Oc2cc(N(C)C)nc3cc(OC)ccc23)CN1C(=O)[C@@H](NC(=O)OC(C)(C)C)C(C)(C)C)C(=O)O` (stereo partly shown) [compound 712], it took 100 nM to reach half-maximal inhibition (Table 7) (IC50).

Under “Table 8”, `C=CC1CC1(NC(=O)C1CC(Oc2cc(-c3ccccc3)nc3cc(OC)ccc23)CN1C(=O)C(Nc1ccc(C)cc1)C(C)C)C(=O)O` (stereo not shown) [compound 822] gave an IC50 of 50 nM.

In turn, `C=CC1CC1(NC(=O)C1CC(Oc2cc(-c3ccc(Cl)cc3)nc3cc(OC)ccc23)CN1C(=O)C(NC(=O)OC(C)(C)C)C(C)(C)C)C(=O)O` (stereo not shown) [compound 811] returned a half-inhibitory concentration (IC50) (Table 8) of 40 nM.

As for `C=CC1C[C@]1(NC(=O)[C@@H]1C[C@@H](Oc2ccnc3ccccc23)CN1C(=O)[C@@H](NC(=O)OC(C)(C)C)C(C)(C)C)C(=O)O` (stereo partly shown) [compound 501], the IC50 (Table 5) was determined as 400 nM.

For the setting “Table 7”, `C=CC1CC1(NC(=O)C1CC(Oc2cc(OCC(C)C)nc3cc(OC)ccc23)CN1C(=O)C(NC(=O)OC(C)(C)C)C(C)(C)C)C(=O)O` (stereo not shown) [compound 735] had an IC50 of 58 nM.

`C=CC1CC1(NC(=O)C1CC(Oc2cc(-c3ccc(OC)cc3)nc3cc(OC)ccc23)CN1C(=O)C(NC(=O)NC(C)(C)C)C(C)(C)C)C(=O)O` (stereo not shown) [compound 844] yielded an IC50 (Table 8) of 6 nM.

Compound `C=CC1CC1(NC(=O)C1CC(Oc2cc(-c3ccccc3)nc3cc(OC)ccc23)CN1C(=O)C(Nc1ccccc1)C(C)C)C(=O)O` (stereo not shown) [compound 809] returned an IC50 (Table 8) of 71 nM.

As for `C=CC1CC1(NC(=O)C1CC(Oc2cc(-c3ccccc3)nc3cc(OC)ccc23)CN1C(=O)C(NC(=O)c1ccc[nH]1)C(C)(C)C)C(=O)O` (stereo not shown) [compound 916], under “Table 9”, the IC50 is 300 nM.

`C=CC1CC1(NC(=O)C1CC(Oc2cc(-c3ccccc3)nc3cc(OC)ccc23)CN1C(=O)C(Nc1cccc(OC)c1)C(C)C)C(=O)O` (stereo not shown) [compound 821]: where the note is “Table 8”, the IC50 was determined as 120 nM.

With `CC[C@H]1C[C@]1(NC(=O)[C@@H]1C[C@@H](OCc2cccc3ccccc23)CN1C(=O)[C@@H](NC(=O)OCC(C)C)C1CCCCC1)C(=O)O` [compound 303], 11000 nM corresponded to half-maximal inhibition (Table 3) (IC50).

`C=CC1C[C@]1(NC(=O)[C@@H]1C[C@@H](Oc2cc(N)nc3cc(OC)ccc23)CN1C(=O)[C@@H](NC(=O)OC(C)(C)C)C(C)(C)C)C(=O)O` (stereo partly shown) [compound 718] had an IC50 (Table 7) of 160 nM.

`C=CC1CC1(NC(=O)C1CC(Oc2cc(-c3ccccc3)nc3cc(OC)ccc23)CN1C(=O)C(NC(=O)OC(C)(C)C)C1CCCCC1)C(=O)O` (stereo not shown) [compound 847] showed an IC50 (Table 8) of 37 nM.

`C=CC1CC1(NC(=O)C1CC(Oc2cc(-c3ccccc3)nc3cc(OC)ccc23)CN1C(=O)C(Nc1cccc(C)c1)C(C)C)C(=O)O` (stereo not shown) [compound 834] came in with an IC50 (Table 8) of 74 nM.

In the case of `C=CC1CC1(NC(=O)C1CC(Oc2cc(-c3ccccc3)nc3cc(OC)ccc23)CN1C(=O)C(Nc1ccc2ccccc2c1)C(C)C)C(=O)O` (stereo not shown) [compound 863], the IC50 (Table 8) amounted to 300 nM.

As to `C=CC1CC1(NC(=O)C1CC(Oc2cc(-c3ccccc3)nc3cc(OC)ccc23)CN1C(=O)C(NC(=O)OC1CCC1)C(C)(C)C)C(=O)O` (stereo not shown) [compound 905], the IC50 (Table 9) was 29 nM.

Regarding `C=C[C@H]1C[C@]1(NC(=O)[C@@H]1CC(Oc2cc(-c3ccccc3)nc3ccc([N+](=O)[O-])cc23)CN1C(=O)[C@@H](NC(=O)OC(C)(C)C)C1CCCCC1)C(=O)O` (stereo partly shown) [compound 307], inhibition (Table 3) was half-maximal at 270 nM (IC50).

Compound `C=CC1CC1(NC(=O)C1CC(Oc2cc(-c3ccccc3)nc3cc(OC)ccc23)CN1C(=O)C(NC(=O)c1cccc(O)c1C)C(C)(C)C)C(=O)O` (stereo not shown) [compound 911] yielded a half-inhibitory concentration (IC50) (Table 9) of 39 nM.

Values taken from patent US6534523B1, “Hepatitis C inhibitor tri-peptides” (Boehringer Ingelheim (Canada) Ltd., priority 1998, dated 2003).
